“And” between values parts separate entries of the source, which are not always exact repeats. Equal values may be shown once.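 Five compound concentrations were applied to cells in 96-well plates for 48 hours; endpoints were derived by simple linear interpolation of the resulting dose-response curve. GI50 = concentration required for 50% inhibition of growth. At the TGI there is no net growth.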
Key:
Assay in all cases: NCI tumour cell line growth inhibition, 48 h
COLO 205 colon = tested on: COLO 205 colon
TK-10 renal = tested on: TK-10 renal
RPMI-8226 leukemia = tested on: RPMI-8226 leukemia
A498 renal = tested on: A498 renal
OVCAR-5 ovarian = tested on: OVCAR-5 ovarian
SW-620 colon = tested on: SW-620 colon
HT29 colon = tested on: HT29 colon
SK-OV-3 ovarian = tested on: SK-OV-3 ovarian
CCRF-CEM leukemia = tested on: CCRF-CEM leukemia
RXF 393 renal = tested on: RXF 393 renal

Row | SMILES | TGI (COLO 205 colon) [µM] | TGI (TK-10 renal) [µM] | TGI (RPMI-8226 leukemia) [µM] | TGI (A498 renal) [µM] | TGI (OVCAR-5 ovarian) [µM] | TGI (SW-620 colon) [µM] | TGI (HT29 colon) | TGI (SK-OV-3 ovarian) [µM] | TGI (CCRF-CEM leukemia) [µM] | TGI (RXF 393 renal) | GI50 (COLO 205 colon) [µM] | GI50 (TK-10 renal) [µM] | GI50 (A498 renal) [µM] | GI50 (OVCAR-5 ovarian) [µM] | GI50 (SW-620 colon) [µM] | GI50 (HT29 colon) [µM] | GI50 (SK-OV-3 ovarian) [µM] | GI50 (CCRF-CEM leukemia) [µM] | GI50 (RXF 393 renal) [µM]
1 | COc1ccc(/C=C(\Cl)c2ccc(OC)c(OC)c2)cc1OC | > 100 | > 100 | > 100 | > 100 | > 100 | > 100 | > 100 µM | > 100 | > 100 | > 100 µM |  |  |  |  |  |  |  |  | 
2 | COc1ccc(Br)c2c1CC(C(=O)O)CC2 (stereo not given) | > 100 | > 100 | > 100 | > 100 | > 100 | > 100 | > 100 µM | > 100 | > 100 | > 100 µM |  |  |  |  |  |  |  |  | 
3 | C/C(=N\N)C(CN(C)C)C(c1ccccc1)c1c(O)c2ccccc2oc1=O (stereo not given) | > 100 | > 100 | > 100 | > 100 | > 100 | > 100 | > 100 µM | > 100 | > 100 | > 100 µM |  |  |  |  |  |  |  |  | 
4 | COc1cc(/C=C/C(=O)c2sc(-n3nc(-c4ccccc4)cc3-c3ccccc3)nc2C)ccc1O | > 100 | > 100 | > 100 | > 100 | > 100 | > 100 |  | > 100 | > 100 | > 100 µM |  |  |  |  |  |  |  |  | 
5 | CCOC(=O)CSc1ccnc(=O)[nH]1 | > 100 | > 100 | > 100 | > 100 | > 100 | > 100 | > 100 µM | > 100 | > 100 | > 100 µM |  |  |  |  |  |  |  |  | 
6 | CCOC(=O)c1nc2ccc(C(F)(F)F)cc2nc1NCc1ccc(Cl)c(Cl)c1 | > 100 | > 100 | > 100 | 92.1 | > 100 | > 100 | 90.9 µM | > 100 | > 100 | 81.5 µM |  |  |  |  |  |  |  |  | 
7 | Cc1c(C#N)c2nnn(C)c(=O)n2c1-c1ccccc1 |  | > 100 | > 100 | > 100 | > 100 | > 100 |  | > 100 | > 100 | > 100 µM |  |  |  |  |  |  |  |  | 
8 | Cc1c2ccncc2cc2c1sc1ccncc12 | 12.1 | 36 | 7.49 | 13.8 | 19.7 | 16.7 | 14.5 µM | 29 | 5.32 | 12.4 µM |  |  |  |  |  |  |  |  | 
9 | COc1cc2cc(C(=O)N3CC(CCl)c4c3cc(NC(=O)C(C)(C)c3ccccc3[N+](=O)[O-])c3ccccc43)[nH]c2c(OC)c1OC (stereo not given) |  |  | > 600 |  |  |  | 50 µM and 203 µM |  |  | 5.9 µM and 19.9 µM | 204 | 18.3 | 59.1 | 119 | 16.9 | 14.5 | 70 | 51.2 | 6.25
10 | O=S1(=O)c2cnccc2NC(=NCc2cccc3ccccc23)N1c1ccccc1 | > 100 | > 100 | > 76.6 | > 100 | > 100 | > 100 | > 100 µM | > 100 | > 100 | > 90.4 µM |  |  |  |  |  |  |  |  | 
11 | NC(=O)C(Nc1c(Cl)cccc1Cl)c1cc2cc(Br)ccc2nc1Cl (stereo not given) | > 100 | 96.3 | > 100 | > 100 | > 100 | > 100 | > 100 µM | > 100 | > 100 | > 100 µM |  |  |  |  |  |  |  |  | 
12 | Clc1cccc(Cl)c1C=NC12CC3CC(CC(C3)C1)C2 | > 10 | > 10 | > 10 | > 10 | > 10 | > 10 | > 10 µM | > 10 | > 10 | > 10 µM |  |  |  |  |  |  |  |  | 
13 | CC(C)OP(=O)(OC(C)C)C(C(C)C)N(C)/C(N)=N\C1=NC(C(F)(F)F)(C(F)(F)F)N=C(C(C(F)(F)F)C(F)(F)F)O1 (stereo not given) | 3.64 | 13.6 | 7.45 | 23.5 | 11.4 | 5.48 | 6.98 µM | 19.8 | 4.88 | 4.08 µM |  |  |  |  |  |  |  |  | 
14 | O=C(NC(C(F)(F)F)(C(F)(F)F)P(=O)(c1ccccc1)c1ccccc1)C(C(F)(F)F)C(F)(F)F | 37.4 | 72.7 | 91.8 | > 100 | > 100 | 62.3 | 56 µM | > 100 | > 100 | 68.2 µM |  |  |  |  |  |  |  |  | 
15 | O=S(=O)([O-])[O-].[Fe+2].c1ccc(/C(=N\Nc2ccccn2)c2ccccn2)cc1 | 2.15 | 7.73 | 12.4 | 24.2 | 7.07 | 11.2 | 22.7 µM | 4.25 | 9.71 | 11.7 µM |  |  |  |  |  |  |  |  | 
16 | O=C1c2cc3c(cc2CC12Cc1cc4c(cc1C2=O)CCCC4)CCCC3 | > 100 | 75.8 | > 100 | > 100 | > 100 | > 100 | > 100 µM | > 100 | > 100 | 51.6 µM |  |  |  |  |  |  |  |  | 

Row | SMILES | TGI (COLO 205 colon) [µM] | TGI (TK-10 renal) [µM] | TGI (RPMI-8226 leukemia) [µM] | TGI (A498 renal) [µM] | TGI (OVCAR-5 ovarian) [µM] | TGI (SW-620 colon) [µM] | TGI (HT29 colon) | TGI (SK-OV-3 ovarian) [µM] | TGI (CCRF-CEM leukemia) [µM] | TGI (RXF 393 renal) | GI50 (COLO 205 colon) [µM] | GI50 (TK-10 renal) [µM] | GI50 (A498 renal) [µM] | GI50 (OVCAR-5 ovarian) [µM] | GI50 (SW-620 colon) [µM] | GI50 (HT29 colon) [µM] | GI50 (SK-OV-3 ovarian) [µM] | GI50 (CCRF-CEM leukemia) [µM] | GI50 (RXF 393 renal) [µM]
17 | C=CCONC(=O)c1ccc(Cl)cc1 | > 100 | > 100 | > 100 | > 100 | > 100 | > 100 | > 100 µM | > 100 | > 100 | > 100 µM |  |  |  |  |  |  |  |  | 
18 | CC1=C(C(=O)Nc2cccc3c2C(=O)NC3=O)CC(C(=O)Nc2cccc3c2C(=O)NC3=O)=C(C)N1 | > 100 | > 100 | > 100 | > 100 | > 100 | > 100 |  | > 100 | > 100 | > 100 µM |  |  |  |  |  |  |  |  | 
19 | NC(=O)OCC(COc1ccc(Cl)cc1)OC(=O)c1ccccc1Cl (stereo not given) | 32.7 | 79.9 | 51.6 | > 100 | 62.8 | 36.4 | 33.2 µM | > 100 | 47.4 | 25.7 µM |  |  |  |  |  |  |  |  | 
20 | C/C(CN1C(=O)c2ccccc2C1=O)=N\NS(=O)(=O)c1ccc(Br)cc1 | > 100 | > 100 | > 100 | > 100 | > 100 | > 100 | > 100 µM | > 100 | > 100 | > 100 µM |  |  |  |  |  |  |  |  | 
21 | Cc1ccc(NCC2CC/C(=C\c3ccc(Cl)cc3)C2=O)cc1 (stereo not given) | 34.2 | 40.6 | 6.96 | > 73.3 | > 54.5 | 16.5 | 49.1 µM | > 100 | 19.3 | 31 µM |  |  |  |  |  |  |  |  | 
22 | Cc1nn2c(=O)c([N+](=O)[O-])c(/C=C/c3ccccc3)nc2s1 | 28.8 | 41.3 | 6.84 | 59 | > 100 | > 51.4 | 7.83 µM | > 40.5 | 7.65 | 7.32 µM |  |  |  |  |  |  |  |  | 
23 | C=C(c1ccccc1)C1ON(C)CCc2cc(OC)c(OC)cc21 (stereo not given) | > 100 | > 100 | > 100 | > 100 | > 100 | > 100 | > 100 µM | > 100 | > 100 | > 100 µM |  |  |  |  |  |  |  |  | 
24 | Oc1ccccc1/C=N/Nc1nnc2c3ccccc3c3ccccc3c2n1 | > 100 | > 100 | > 100 | > 100 | > 100 | > 100 | > 100 µM | > 100 | > 100 | > 100 µM |  |  |  |  |  |  |  |  | 
25 | c1csc(-c2cscc2-c2ccsc2)c1 | > 100 | > 100 | > 100 | > 100 | > 100 | > 100 | > 100 µM | > 100 | > 100 | 68.3 µM |  |  |  |  |  |  |  |  | 
26 | NC(=S)NNC(=O)/C(=C/c1ccc(/C=C(\NC(=O)c2ccccc2)C(=O)NNC(N)=S)cc1)NC(=O)c1ccccc1 | > 100 | > 100 | > 70.2 | > 100 | > 100 | > 100 | > 100 µM | > 100 | > 100 | > 100 µM |  |  |  |  |  |  |  |  | 
27 | COc1cc(S(=O)(=O)Nc2ccc(-c3csc(N4C(=O)CSC4c4cccs4)n3)cc2)ccc1Cl (stereo not given) | > 100 |  | 66.8 | > 100 | > 100 | 68.5 | > 100 µM | > 100 | 95.1 | 25.5 µM |  |  |  |  |  |  |  |  | 
28 | CCCCCC(=O)Nc1n[nH]nc1C(N)=O | > 100 | > 100 | > 100 | > 100 | > 100 | > 100 | > 100 µM | > 100 | > 100 | > 100 µM |  |  |  |  |  |  |  |  | 
29 | O=C1CC(=O)NC(=NN2C(=O)CSC2c2ccc(Cl)c(Cl)c2)N1 (stereo not given) | > 100 | > 100 | > 100 | > 100 | > 100 | > 100 | > 100 µM | > 100 | 49.3 | > 100 µM |  |  |  |  |  |  |  |  | 
30 | CCOC(=O)/C(O)=C(/C=N\C(=S)Nc1ccccc1Cl)C(=O)OCC | > 100 |  | > 100 | > 100 | > 100 | > 100 | > 100 µM | > 100 | > 100 | > 100 µM |  |  |  |  |  |  |  |  | 
31 | Fc1cc(C2=C[C@H](c3ccc(Cl)cc3)NC(=S)N2)c(Cl)cc1Cl | > 100 | > 100 | 56.2 | 89.6 | > 100 | > 100 | > 100 µM | > 100 | > 100 | > 100 µM |  |  |  |  |  |  |  |  | 
32 | COc1ccc(/C=C2/C(C)=NN(c3cccc(Cl)c3)/C2=N/c2nc3ccccc3s2)cc1 |  | 68.8 | 66.6 | 62.4 | 69.6 | 52 | 37.8 µM | 63.7 | 92.7 | 26.8 µM |  |  |  |  |  |  |  |  | 

Source: PubChem BioAssay (NCI)
